Experimental data taken from patent EP1194447B1, “NOVEL POTASSIUM CHANNELS AND GENES ENCODING THESE POTASSIUM CHANNELS” (NEUROSEARCH A/S, priority 1999, dated 2000).

Assays:
KCNQ5 = biological target: T1, KCNQ5 (Homo sapiens, UniProt Q9NR82); test: Two-electrode voltage clamp of KCNQ5 homomers expressed in Xenopus oocytes; assay type: cell-based; conditions: for IC50: extracellular application, Xenopus oocytes, from plotted fit curves (Fig. 5A), means ± SEM of 4 to 12 measurements, read-out: IC50, inhibition of KCNQ5 homomers; for effect on KCNQ5 currents: 10 µM, oocytes injected with KCNQ5 alone (no M1 receptor)
T1 construct: expressed in transfected cells; host or cells: Xenopus oocytes injected with cRNA transcribed from the KCNQ5-containing pTLN vector
Text: Two-electrode voltage-clamp current traces from a Xenopus oocyte injected with KCNQ5 cRNA. […] Starting from a holding potential of -80 mV cells were clamped for 2 seconds to voltages between -80 and +40 mV, in +10 mV steps, followed by a constant test pulse to -30 mV; • Figs. 4A-G show the electrophysiological properties of KCNQ5. Both the splice variant I (found in brain) and splice variant III (found in muscle) were expressed in Xenopus oocytes and examined by two-electrode voltage clamping. Both variants activate slowly upon depolarisation, but form I (4A) initially activates slower than the muscle form III (4B). Starting from a holding potential of -80 mV, the voltage was stepped for 0.8 seconds to values between -100 and + 40 mV in steps of 10 mV, followed by a voltage step to -30 mV (see inset, panel A). Channel activation by depolarization was fitted (for 2 sec. steps) by a sum of three exponential functions. For a step to +20 mV, the rate constants were ô1 = 37. 2 ± 2.2 ms, ô2 = 246 ± 17 ms, and ô3 = 1112 ± 91 ms for splice variant I, while these constants were ô1 = 24.5 ± 0.8 ms, ô2 = 163 ± 6 ms, and ô3 = 1690 ± 46 ms (± SEM, n=16). This difference in kinetics also results in different curves when a typical M-current protocol is used (4C, variant I; 4D, variant III). Variant I induces currents that kinetically resemble M-currents. In this protocol, the membrane voltage is clamped for 1 second to voltages between -30 and -90 mV in steps of -10 mV, from a holding potential of -30 mV. This was followed by a step to -30 mV (panel C, inset). (4E, 4F), apparent open probabilities of variants I (4E) and variant III (4F) as a function of voltage obtained from tail current analysis as described in Methods. Mean values obtained from 12 oocytes are shown. Fitting a Boltzmann equation yielded V½ = -46 ± 1 mV and an apparent gating charge of z = 2.8 ± 0.1 for isoform I, and V½ = -48 ± 1 mV and an apparent gating charge of z = 2.5 ± 0.1 for isoform III. For this fit, values at potentials more positive than +10 mV were excluded, as these are probably affected by a second (inactivation) gating process which leads to a decrease of apparent Popen at more positive potentials. (4G), ion selectivity of KCNQ5 currents (variant I). Extracellular sodium was replaced by equimolar amounts of potassium. The reversal potential is shown as a function of the potassium concentration. […] Data are from 10 oocytes from 2 different batches; • Figs. 5A-C show the pharmacology of KCNQ5 and KCNQ3/5 heteromers. (5A) Inhibition of KCNQ5 homomers by extracellular linopirdine (down triangles), XE991 (up triangles) and TEA (squares). […] (5B) Niflumic acid alters the voltage dependence of the apparent popen. In the presence of 500 µM niflumic acid (open circles), the voltage dependence is shifted about 20 mV towards negative potentials. (5C) TEA sensitivity is altered in KCNQ3/5 heteromers. Coexpression of KCNQ5 and KCNQ3 (1:1) (diamonds) increased the IC50 value to 200 mM, coexpression with the KCNQ3 (T323Y) mutant (circles) decreased the IC50 to ~ 30 mM. […] The pulse protocol is shown in the inset of panel b. No effect of 10 µM muscarine or oxotremorine methiodide was found in oocytes injected with KCNQ5 alone; and • Figs. 7A-C show the interactions between KCNQ2 and KCNQ5 (7A, 7B) and KCNQ3 and KCNQ5 (7C): • (7A) currents at the end of a two second pulse to 0 mV from a holding potential of -80 mV of oocytes injected with different combinations of KCNQ cRNAs (always 10 ng total amount of RNA). The current amplitude elicited by co-injecting KCNQ2 and KCNQ5 could be explained by a linear superposition of currents. Co-injection of KCNQ5 with the dominant negative mutant KCNQ2(G279S) or of KCNQ2 with the equivalent mutant KCNQ5(G278S) lead to a roughly 50% reduction in current amplitude, which is consistent with a lack of interaction since only 50% of WT cRNA was injected; • (7B) normalized current traces of experiments used for panel (A). […]

[1] = biological target: T2, KCNQ5 coexpressed with KCNQ3 (T323Y) mutant (Homo sapiens, UniProt O43525+Q9NR82, T323Y); test: Two-electrode voltage clamp of KCNQ5 coexpressed with the KCNQ3 (T323Y) mutant in Xenopus oocytes; assay type: cell-based; conditions: coexpression of KCNQ5 with the KCNQ3 (T323Y) mutant; Fig. 5C; read-out: IC50 (TEA sensitivity)
T2 construct: expressed in transfected cells; host or cells: Xenopus oocytes co-injected with cRNAs
Text: Two-electrode voltage-clamp current traces from a Xenopus oocyte injected with KCNQ5 cRNA. […] Starting from a holding potential of -80 mV cells were clamped for 2 seconds to voltages between -80 and +40 mV, in +10 mV steps, followed by a constant test pulse to -30 mV; • Figs. 4A-G show the electrophysiological properties of KCNQ5. Both the splice variant I (found in brain) and splice variant III (found in muscle) were expressed in Xenopus oocytes and examined by two-electrode voltage clamping. Both variants activate slowly upon depolarisation, but form I (4A) initially activates slower than the muscle form III (4B). Starting from a holding potential of -80 mV, the voltage was stepped for 0.8 seconds to values between -100 and + 40 mV in steps of 10 mV, followed by a voltage step to -30 mV (see inset, panel A). Channel activation by depolarization was fitted (for 2 sec. steps) by a sum of three exponential functions. For a step to +20 mV, the rate constants were ô1 = 37. 2 ± 2.2 ms, ô2 = 246 ± 17 ms, and ô3 = 1112 ± 91 ms for splice variant I, while these constants were ô1 = 24.5 ± 0.8 ms, ô2 = 163 ± 6 ms, and ô3 = 1690 ± 46 ms (± SEM, n=16). This difference in kinetics also results in different curves when a typical M-current protocol is used (4C, variant I; 4D, variant III). Variant I induces currents that kinetically resemble M-currents. […]

KCNQ2/KCNQ3 channels = KCNQ2/KCNQ3 channels (Homo sapiens, UniProt O43525+O43526); conditions: 200 µM; cited from earlier work
[2] = system: KCNQ5 co-expressed with M1 receptors; test: KCNQ5 currents in Xenopus oocytes co-expressing M1 receptors (two-electrode voltage clamp); assay type: cell-based, human; conditions: 10 µM muscarine, 3 minutes after applying; Fig. 6
Text: Two-electrode voltage-clamp current traces from a Xenopus oocyte injected with KCNQ5 cRNA. […] Starting from a holding potential of -80 mV cells were clamped for 2 seconds to voltages between -80 and +40 mV, in +10 mV steps, followed by a constant test pulse to -30 mV; • Figs. 4A-G show the electrophysiological properties of KCNQ5. […] Starting from a holding potential of -80 mV, the voltage was stepped for 0.8 seconds to values between -100 and + 40 mV in steps of 10 mV, followed by a voltage step to -30 mV (see inset, panel A). Channel activation by depolarization was fitted (for 2 sec. steps) by a sum of three exponential functions. For a step to +20 mV, the rate constants were ô1 = 37. […] In this protocol, the membrane voltage is clamped for 1 second to voltages between -30 and -90 mV in steps of -10 mV, from a holding potential of -30 mV. This was followed by a step to -30 mV (panel C, inset). (4E, 4F), apparent open probabilities of variants I (4E) and variant III (4F) as a function of voltage obtained from tail current analysis as described in Methods. Mean values obtained from 12 oocytes are shown. […] For this fit, values at potentials more positive than +10 mV were excluded, as these are probably affected by a second (inactivation) gating process which leads to a decrease of apparent Popen at more positive potentials. (4G), ion selectivity of KCNQ5 currents (variant I). […]

T1 sequence (Q9NR82 36-932 limits assumed): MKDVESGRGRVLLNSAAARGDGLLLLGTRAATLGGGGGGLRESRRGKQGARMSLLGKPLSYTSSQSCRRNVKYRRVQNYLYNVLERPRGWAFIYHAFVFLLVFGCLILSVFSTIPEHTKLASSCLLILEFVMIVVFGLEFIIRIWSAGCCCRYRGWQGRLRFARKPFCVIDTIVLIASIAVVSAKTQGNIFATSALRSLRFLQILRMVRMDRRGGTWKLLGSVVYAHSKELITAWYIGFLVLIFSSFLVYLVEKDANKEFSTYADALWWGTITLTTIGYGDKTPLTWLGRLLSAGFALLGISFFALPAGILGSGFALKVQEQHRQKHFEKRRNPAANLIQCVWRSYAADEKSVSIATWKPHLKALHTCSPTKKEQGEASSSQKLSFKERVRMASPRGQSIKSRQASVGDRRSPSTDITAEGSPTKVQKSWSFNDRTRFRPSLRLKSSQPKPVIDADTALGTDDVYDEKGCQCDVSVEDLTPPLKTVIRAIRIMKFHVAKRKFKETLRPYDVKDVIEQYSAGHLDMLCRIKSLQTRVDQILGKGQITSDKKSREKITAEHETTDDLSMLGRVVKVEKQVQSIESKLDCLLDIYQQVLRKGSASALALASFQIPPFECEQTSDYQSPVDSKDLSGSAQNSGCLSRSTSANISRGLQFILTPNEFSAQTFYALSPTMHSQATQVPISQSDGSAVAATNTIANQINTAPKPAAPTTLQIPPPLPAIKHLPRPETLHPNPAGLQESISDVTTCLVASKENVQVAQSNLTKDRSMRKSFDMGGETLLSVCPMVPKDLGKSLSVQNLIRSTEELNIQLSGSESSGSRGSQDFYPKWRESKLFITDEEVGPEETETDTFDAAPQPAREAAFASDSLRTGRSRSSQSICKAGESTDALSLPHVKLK
Sequence of KCNQ2/KCNQ3 channels (O43526 whole entry): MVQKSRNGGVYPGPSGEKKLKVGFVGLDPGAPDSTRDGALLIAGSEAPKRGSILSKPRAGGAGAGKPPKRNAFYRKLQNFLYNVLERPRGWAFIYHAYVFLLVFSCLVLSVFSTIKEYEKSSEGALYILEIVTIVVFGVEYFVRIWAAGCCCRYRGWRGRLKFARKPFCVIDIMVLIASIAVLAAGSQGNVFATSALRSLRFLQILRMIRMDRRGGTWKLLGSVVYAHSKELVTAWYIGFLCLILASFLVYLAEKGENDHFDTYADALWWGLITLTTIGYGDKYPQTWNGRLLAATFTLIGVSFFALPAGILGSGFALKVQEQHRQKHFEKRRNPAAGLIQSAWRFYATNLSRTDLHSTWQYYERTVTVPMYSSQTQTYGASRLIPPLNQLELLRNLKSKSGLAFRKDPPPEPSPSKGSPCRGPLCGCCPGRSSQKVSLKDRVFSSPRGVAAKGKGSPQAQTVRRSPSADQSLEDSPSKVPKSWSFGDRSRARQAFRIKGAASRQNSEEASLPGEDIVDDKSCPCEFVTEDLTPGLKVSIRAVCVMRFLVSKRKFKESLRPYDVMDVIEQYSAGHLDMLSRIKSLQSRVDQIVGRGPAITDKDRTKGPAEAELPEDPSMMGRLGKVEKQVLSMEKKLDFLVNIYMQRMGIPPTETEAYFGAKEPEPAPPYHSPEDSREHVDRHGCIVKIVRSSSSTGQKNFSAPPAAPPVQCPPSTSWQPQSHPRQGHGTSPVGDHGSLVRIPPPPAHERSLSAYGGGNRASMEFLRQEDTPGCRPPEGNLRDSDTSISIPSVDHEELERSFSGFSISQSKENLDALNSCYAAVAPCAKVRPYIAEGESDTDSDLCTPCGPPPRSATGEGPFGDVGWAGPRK
Sequence of KCNQ2/KCNQ3 channels (O43525 whole entry): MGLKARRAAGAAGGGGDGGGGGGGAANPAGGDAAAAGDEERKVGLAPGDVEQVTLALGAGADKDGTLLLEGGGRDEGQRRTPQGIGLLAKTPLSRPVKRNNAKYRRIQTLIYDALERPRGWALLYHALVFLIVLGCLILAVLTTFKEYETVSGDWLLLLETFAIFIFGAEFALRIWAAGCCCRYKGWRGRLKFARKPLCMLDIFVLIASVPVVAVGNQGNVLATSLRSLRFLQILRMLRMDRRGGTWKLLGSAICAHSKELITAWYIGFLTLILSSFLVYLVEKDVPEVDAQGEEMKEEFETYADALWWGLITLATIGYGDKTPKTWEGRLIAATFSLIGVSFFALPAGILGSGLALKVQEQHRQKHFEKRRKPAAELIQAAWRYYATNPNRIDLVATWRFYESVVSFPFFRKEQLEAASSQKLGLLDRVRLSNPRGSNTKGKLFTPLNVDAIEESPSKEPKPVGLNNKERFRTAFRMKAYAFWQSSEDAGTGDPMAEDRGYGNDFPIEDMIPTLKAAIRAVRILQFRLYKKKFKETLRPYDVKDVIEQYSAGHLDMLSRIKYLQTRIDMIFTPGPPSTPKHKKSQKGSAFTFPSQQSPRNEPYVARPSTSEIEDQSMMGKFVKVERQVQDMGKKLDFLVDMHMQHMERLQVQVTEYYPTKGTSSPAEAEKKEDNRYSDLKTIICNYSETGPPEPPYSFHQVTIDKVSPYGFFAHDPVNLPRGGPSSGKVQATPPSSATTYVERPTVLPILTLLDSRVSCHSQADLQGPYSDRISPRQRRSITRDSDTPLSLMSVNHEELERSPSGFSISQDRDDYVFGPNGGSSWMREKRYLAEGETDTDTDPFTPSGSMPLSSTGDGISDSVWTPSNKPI
T2 sequence (Q9NR82 36-932 limits assumed): as the sequence (Q9NR82 36-932 limits assumed) above
T2 sequence (O43525 whole entry T323Y): as the sequence (O43525 whole entry) above, with T323Y counted along it

O=C(O)c1cccnc1Nc1cccc(C(F)(F)F)c1 [Niflumic acid]
shift of the voltage dependence of the apparent popen towards negative potentials (KCNQ5; 500 µM niflumic acid, Fig. 5B): about 20 mV

CC[N+](CC)(CC)CC [TEA]
IC50 (KCNQ5): 71 ± 17 mM | IC50 [1]: ~30 mM

O=C1N(c2ccccc2)c2ccccc2C1(Cc1ccncc1)Cc1ccncc1 [Linopirdine, 1,3-dihydro-1-phenyl-3,3-bis-(4-pyridylmethyl)-2H-indol-2-one]
inhibition of KCNQ2/KCNQ3 channels (KCNQ2/KCNQ3 channels): nearly completely inhibits | inhibition at 200 µM (KCNQ5; 200 µM Linopirdine in ND98): ~80% | IC50 (KCNQ5): 0.051 ± 0.005 mM

[Ba+2] [Ba^++]
inhibition of KCNQ5 currents (KCNQ5; 5 mM Ba++): more than 80%

C[N+](C)(C)CC#CCN1CCCC1=O [oxotremorine methiodide]
effect on KCNQ5 currents (KCNQ5): No effect

C[C@@H]1O[C@H](C[N+](C)(C)C)C[C@H]1O [muscarine]
effect on KCNQ5 currents (KCNQ5): No effect | effect on KCNQ5 currents by stimulating co-expressed M1 receptors [2]: inhibition of KCNQ5 currents
